In article PMC10427391, “Identification of Cytochrome P450 2E1 as a Novel Target in Glioma and Development of Its Inhibitor as an Anti‐Tumor Agent” (Advanced Science, 2023):
Like-named read-outs stand apart in the source and are kept apart here.

Columns and labels:
HMC‐3 cells = assay: HMC-3 cells transfected with CYP2E1 plasmids: PPAR-γ and cytokines; conditions: HMC-3 transfected with CYP2E1 plasmids
[1] = system: other CYP enzymes (CYP1A2, CYP2B6, CYP2C8, CYP2C9, CYP2C19, CYP2D6, CYP3A4/5); assay: Selectivity, microsomal incubation, remaining CYPs; type: biochemical; conditions: probe substrates
Description: (§1) A 100 µL microsomal incubation system^[ [44] ^] contained probe drugs for each CYP with different series of concentrations, Q11, phosphate buffer, EDTA, magnesium chloride, and substrates (phenacetin for CYP1A2, coumarin for CYP2A6, bupropion for CYP2B6, paclitaxel for CYP2C8, tolbutamide for CYP2C9, omeprazole for CYP2C19, dextromethorphan for CYP2D6, chlorzoxazone for CYP2E1, midazolam for CYP3A4/5). HPLC‐UV and HPLC‐FLD were used to measure the number of metabolites.

U251 cells [2] = assay: Direct effect on glioma cells (CCK-8), U251; conditions: concentrations below 100 µM
CYP2E1 [3] = molecular target: T1, CYP2E1 (Homo sapiens, UniProt P05181); assay: Surface plasmon resonance binding of Q11 to CYP2E1 (Biacore 8k); design: purchased Cloud-Clone Corp. Wuhan
Description: Surface Plasma Resonance (SPR) experiments^[ [43] ^] were carried out using the Biacore system (Biacore 8k, Cytiva). Recombinant CYP2E1 protein was purified by Cloud‐Clone Corp. Wuhan. Running buffer contained PBS (2 mM KH2PO4, 10 mM Na2HPO4, 137 mM NaCl, 2.7 mM KCl) with 0.005% Tween‐20, pH 7.4. CYP2E1 protein was diluted to 25 µg mL^−1 in immobilization buffer and bound to a CM5 chip at about 2000RU. Immobilization buffer contained 10 mM sodium acetate, pH 4.0. Samples of compound Q11 were diluted in running buffer with 125, 62.5, 31.25, 15.625, 7.8, 3.9, 1.95 µM and injected at 30 µL min^−1 for 60 s contact time followed by dissociation for 120 s. The data was fitted with Biacore Insight Evaluation software (Version 2.0).
Target sequence in this assay (P05181 whole entry, species assumed): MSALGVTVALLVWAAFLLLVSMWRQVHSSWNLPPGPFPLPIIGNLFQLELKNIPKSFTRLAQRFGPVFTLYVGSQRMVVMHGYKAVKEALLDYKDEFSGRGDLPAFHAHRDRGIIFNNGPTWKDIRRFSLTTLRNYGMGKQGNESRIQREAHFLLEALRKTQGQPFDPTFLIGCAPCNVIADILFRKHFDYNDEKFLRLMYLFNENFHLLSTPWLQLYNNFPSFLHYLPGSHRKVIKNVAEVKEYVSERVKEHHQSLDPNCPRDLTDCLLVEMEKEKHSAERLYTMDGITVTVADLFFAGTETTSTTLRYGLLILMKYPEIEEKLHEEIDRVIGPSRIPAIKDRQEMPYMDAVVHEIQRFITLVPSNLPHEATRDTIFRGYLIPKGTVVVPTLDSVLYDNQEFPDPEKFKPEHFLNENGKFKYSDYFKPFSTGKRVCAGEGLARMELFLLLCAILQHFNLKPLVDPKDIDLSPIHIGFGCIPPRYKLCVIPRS

GBM = assay: Intracranial glioma models overall (rats, mice, nude mice)
GL261 cells [4] = assay: Direct effect on glioma cells (CCK-8), GL261; conditions: concentrations below 100 µM
CYP2E1 [5] = molecular target: T1, CYP2E1; assay: In vitro inhibition of CYP2E1 (chlorzoxazone as substrate); type: biochemical; design: A 100 µL microsomal incubation system; from tissue
Description: Chlorzoxazone with a concentration of 62.5 µM and inhibitors with different gradient concentrations were selected to plot the inhibition of chlorzoxazone and to calculate the IC50 of the inhibitor. A Lineweaver–Burk curve was used to determine the mechanism and calculate the K i of inhibitors of CYP2E1.
as §1
Target sequence in this assay (P05181 whole entry): as the sequence (P05181 whole entry, species assumed) above

CYP2A6 = molecular target: T2, CYP2A6 (Homo sapiens, UniProt P11509); assay: Selectivity, microsomal incubation, CYP2A6 (coumarin as substrate); type: biochemical
T2 construct: A 100 µL microsomal incubation system; from tissue
T2 sequence (P11509 1-494): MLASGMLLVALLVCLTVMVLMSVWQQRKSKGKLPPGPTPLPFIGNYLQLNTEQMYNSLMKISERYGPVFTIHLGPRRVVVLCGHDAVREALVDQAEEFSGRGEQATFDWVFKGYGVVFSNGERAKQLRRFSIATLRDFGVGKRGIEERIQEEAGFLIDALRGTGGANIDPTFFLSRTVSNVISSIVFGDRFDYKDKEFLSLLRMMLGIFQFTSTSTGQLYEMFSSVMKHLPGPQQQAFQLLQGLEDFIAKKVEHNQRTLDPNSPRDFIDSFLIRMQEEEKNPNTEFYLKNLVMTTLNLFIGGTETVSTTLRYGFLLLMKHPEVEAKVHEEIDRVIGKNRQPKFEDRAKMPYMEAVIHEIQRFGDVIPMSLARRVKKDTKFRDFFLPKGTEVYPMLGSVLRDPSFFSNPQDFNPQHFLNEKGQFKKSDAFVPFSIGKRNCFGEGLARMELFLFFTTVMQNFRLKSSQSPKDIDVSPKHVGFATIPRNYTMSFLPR
Description: as §1

[6] = Bioavailability and pharmacokinetics of Q11 in rats; type: in vivo, SD rats
Description: Eight healthy male SD rats were randomly divided into 2 groups (4 rats in each group) using a double‐period self‐cross control principle. The first group was given Q11 (30 mg kg^−1, i.g), and the second group was given Q11 (30 mg kg^−1, i.v.). One week later, a second round of experiments was conducted in which Q11 (30 mg kg^−1, i.v.) was given to the first group of rats and Q11 (30 mg kg^−1, i.g) was given to the second group. Collection of orbital blood was carried out at 0, 2, 7, 15, 30 min and 1, 2, 4, 6, 9, 12, 24 h after Q11 administration.
Thirty healthy male SD rats were randomly divided into three equal groups. Q11 was administrated at 6, 30, or 150 mg kg^−1 (i.g) to these three groups. Collection of orbital blood was carried out at 0, 2, 7, 15, 30 min and 1, 2, 4, 6, 9, 12, 24, 36 h after Q11 administration.

GL261 cells [7] = assay: Proliferation of glioma cells in indirect co-culture with microglia/macrophages, GL261; conditions: co-cultured with primary microglia, RAW 264.7 or THP-1 macrophages
U251 cells [8] = assay: Proliferation of glioma cells in indirect co-culture with microglia/macrophages, U251; conditions: co-cultured with primary microglia, RAW 264.7 or THP-1 macrophages
CYP2E1 [9] = molecular target: T3, CYP2E1 (Rattus norvegicus, UniProt P05182); assay: In vivo inhibition of CYP2E1 activity by metabolism of diethylnitrosamine (DEN), self-controlled cross-administration; design: species or system rats; conditions: DEN 50 mg kg^−1 i.p.
T3 construct: from tissue; host or cells: living rats (whole animal, endogenous enzyme)
Description: A self‐controlled cross‐administration experiment was designed based on previous report.^[ [45] ^] In the first round of the experiment, a single intraperitoneal injection of diethylnitrosamine at 50 mg kg^−1 was given in the first week. After a 1‐week interval, the second round of the experiment was conducted, where each rat was given Q11 at 6, 30, or 150 mg kg^−1 (i.g), and then, after 5 min, an intraperitoneal injection of diethylnitrosamine at 50 mg kg^−1 was given. Collection of orbital blood was carried out at 2, 7, 15, 30 min and 1, 2, 4, 6, 9, 12, 24, 36, 48, 60 h.

[10] = In vivo biodistribution / BBB permeability of Q11 (plasma, cortex, hippocampus, HPLC)
[11] = system: glioma induced by C6 cells; assay: Intracranial orthotopic glioma model induced by C6 cells; conditions: SD rat, oral 30 mg kg^−1
GL261 cells [12] = assay: Cell cycle of GL261 cells in co-culture with primary microglia
primary microglia = assay: Primary microglia induced by IL-4 and IL-13: polarization markers and signaling (western blot, immunofluorescence)
Description: Tissues and cells were harvested and lysed with RIPA buffer. The protein concentration was determined using a BCA kit. Samples were separated on 10% SDS‐PAGE gels and blotted onto nitrocellulose membranes (Millipore).The membranes were incubated with primary antibodies at 4 °C overnight, washed three times with TBST, and then incubated with HRP‐conjugated anti‐mouse IgG or anti‐rabbit IgG diluted in TBST containing 1% non‐fat milk at room temperature for 1 h. After final washing with TBST, the membranes were developed by using ECL.

C6 = assay: Direct effect on glioma cells (CCK-8), C6; conditions: concentrations below 100 µM
[13] = system: glioma induced by GL261 cells; assay: Intracranial orthotopic glioma model induced by GL261 cells; conditions: C57BL/6 mouse
[14] = system: glioma induced by U251‐LUC cells; assay: Intracranial orthotopic glioma model induced by U251-LUC cells; conditions: for bioluminescence in tumor sites: day 14 after transplantation, Q11 at 10 and 30 mg kg^−1; for brain weight / tumor diameter / tumor volume: endpoint day 36 after transplantation
intracerebral glioma = assay: Kaplan–Meier survival of mice with intracerebral glioma; conditions: Q11 30 mg kg^−1 vs saline, P log-rank = 0.0017
[15] = Long-term Q11 treatment, safety, mice; conditions: 26 weeks
[16] = system: inflammatory factors in TME; assay: Inflammatory factors in the tumor microenvironment of C6 orthotopic xenograft model; conditions: C6 model rats
[17] = Long-term Q11 treatment, safety, rats; conditions: 12 weeks
[18] = Central inhibitory effect; conditions: clomethiazole: at a dose that inhibited CYP2E1
GL261 cells [19] = assay: Apoptosis (Annexin V-FITC/PI) of GL261 cells in co-culture with microglia/macrophages
[20] = system: microglia/macrophage of tumor microenvironment; assay: Immunohistochemistry of CD206 and CD86 on tumor tissues; conditions: Q11 group vs model
Description: Paraffin‐embedded specimens were cut into 4‐µm sections. After deparaffinization with xylene and rehydration, antigen retrieval was performed. For immunohistochemistry (IHC), endogenous peroxidase activity was blocked with 3% H2O2 in methanol. Primary antibodies against CYP2E1 (1:200, Abcam, ab28146), Iba‐1 (1:150, Servicebio, China), CD206 (1:150, Servicebio), and CD86 (1:150, Servicebio) were used and results were evaluated blindly by two pathologists and quantified by IPP 6.0 soft.

U251 cells [21] = assay: U251 glioma cells with conditioned medium of CYP2E1-overexpressing HMC-3 cells (proliferation, migration, apoptosis)
GL261 cells [22] = assay: Migration (wound assay) of GL261 cells in co-culture with microglia/macrophages; conditions: 24 h
[23] = IL-4 and IL-13 10 ng mL^−1, 24 h
[24] = Q11 medium- and high-dose groups vs IL-4/IL-13 group

T3 sequence (P05182 whole entry): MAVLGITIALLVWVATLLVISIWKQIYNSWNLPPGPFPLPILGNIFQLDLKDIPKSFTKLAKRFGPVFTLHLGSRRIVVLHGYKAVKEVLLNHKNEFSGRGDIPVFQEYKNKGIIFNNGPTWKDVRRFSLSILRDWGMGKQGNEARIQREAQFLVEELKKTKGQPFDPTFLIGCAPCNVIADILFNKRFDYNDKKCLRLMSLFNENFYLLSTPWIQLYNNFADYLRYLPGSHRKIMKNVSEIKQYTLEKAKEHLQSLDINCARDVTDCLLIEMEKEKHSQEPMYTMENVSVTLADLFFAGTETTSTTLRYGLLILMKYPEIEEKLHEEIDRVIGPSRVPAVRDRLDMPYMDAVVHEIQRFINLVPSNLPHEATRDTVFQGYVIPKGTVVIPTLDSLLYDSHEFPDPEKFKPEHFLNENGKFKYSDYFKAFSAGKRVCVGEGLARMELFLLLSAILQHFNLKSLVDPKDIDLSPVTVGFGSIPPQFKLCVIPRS

## CC(=O)c1scnc1C [Compound Q11, 1‐(4‐methyl‐5‐thialzolyl) ethanone]
HMC‐3 cells
  changes caused by CYP2E1 overexpression (PPAR-γ, IL-4, IL-10, TGFβ up; IL-1α, IL-1β down): significantly blocked the changes
[1]
  inhibition of other CYP enzymes: no inhibition
U251 cells [2]
  direct killing of U251 cells: did not directly kill
CYP2E1 [3]
  Kd: 7 µM
GBM; intracranial xenografts
  tumor-induced weight loss: obviously improved
GBM; orthotopic glioma models
  inhibitory effect on glioma growth compared with TMZ: superior to that of TMZ
GL261 cells [4]
  direct killing of GL261 cells: did not directly kill
CYP2E1 [5]
  IC50: 1.64 µM
  Ki: 0.897 µM
CYP2E1 [5]; Lineweaver–Burk plot
  type of inhibition of CYP2E1: competitive‐noncompetitive mixed‐type inhibitor
CYP2A6
  IC50: 76.2 µM
[6]; male, SD, rat, blood, 30 mg kg^−1, oral administration, read-out: mean T max
  Tmax: 0.45 h
[6]; male, SD, rat, blood, 30 mg kg^−1, oral administration, read-out: mean t 1/2 (converted)
  half-life: 3.05 h
[6]; male, SD, rat, blood, oral vs intravenous, 30 mg kg^−1
  bioavailability: 94.7%
[6]; oral, dose 6 to 150 mg kg^−1
  dose dependence of pharmacokinetic parameters: proportional changes
GL261 cells [7]
  proliferation of GL261 cells in co-culture: significantly inhibited
U251 cells [8]
  proliferation of U251 cells in co-culture: significantly inhibited
CYP2E1 [9]; Q11 6 mg kg^−1 i.g.
  inhibition ratio in terms of clearance (CL) of diethylnitrosamine (DEN): 63.98%
CYP2E1 [9]; Q11 30 mg kg^−1 i.g.
  inhibition ratio in terms of clearance (CL) of diethylnitrosamine (DEN): 79.63%
CYP2E1 [9]; Q11 150 mg kg^−1 i.g.
  inhibition ratio in terms of clearance (CL) of diethylnitrosamine (DEN): 85.42%
[10]; SD rats, 30 mg kg^−1 intragastric, about 1 h
  plasma concentration at peak: 14.75 ng/mL
[10]; SD rats, 30 mg kg^−1 intragastric, cortex and hippocampus parallel to plasma
  blood brain barrier (BBB) permeability: capable of penetrating BBB
[10]; female, SD, rat, in vivo, po, 30 mg/kg
  Tmax: ~1 h
[10]; female, SD, rat, plasma, oral, 30 mg kg^−1
  concentration at 4 h: 9.21 ng/mL
[11]
  growth of tumor (brain weight, tumor diameter, tumor weight): significantly suppressed
GL261 cells [12]
  cell cycle of GL261 cells: arrested the cell cycle in S phase
Primary microglia; [23]
  Arg-1 (M2 marker) expression: significantly reduced
  iNOS (M1 marker) expression: increased
Primary microglia; [24]
  p-STAT-1 and p-NF-κB: significantly increased
  p-STAT-3 and p-STAT-6: significantly decreased
Primary microglia; after induction by IL-4 and IL-13
  PPAR-γ expression: significantly inhibited
C6
  direct killing of C6 cells: did not directly kill
[13]
  growth of glioma (brain weight, tumor diameter, volumes): significantly inhibited
[14]
  bioluminescence in tumor sites: lesser bioluminescence
  brain weight: markedly suppressed
  tumor diameter: markedly suppressed
  tumor volume: markedly suppressed
Intracerebral glioma
  mean survival time: 32 days
[15]
  adverse reactions on long-term treatment: no adverse reactions
[16]
  M1-like inflammatory factors (IL-1β, TNF-α): increased
  M2-like inflammatory factors (IL-4, TGF-β, IL-10, VEGFB, IL-6): significantly decreased
[17]
  adverse reactions on long-term treatment: no adverse reactions
[18]
  central inhibitory effect: does not show a central inhibitory effect
GL261 cells [19]
  apoptosis of GL261 cells: promoted apoptosis
[20]
  CD86 (M1 marker) positive cells: increased significantly
  number of CD206 (M2 marker) positive cells: significantly reduced
U251 cells [21]
  tumor-promoting effects of upregulating CYP2E1 in HMC-3 (proliferation, migration, apoptosis of U251): reversed
GL261 cells [22]
  migration of GL261 cells: restrained migration

## CN(CCOc1ccc(CC2SC(=O)NC2=O)cc1)c1ccccn1 (centres unmarked) [Rosiglitazone, reference compound]
Primary microglia; agonist of PPAR-γ added to Q11
  effect on the action of Q11 (PPAR-γ dependence): completely blocked the effect of Q11

## Cn1nnc2c(C(N)=O)ncn2c1=O [TMZ, temozolomide, reference compound]
[14]
  bioluminescence in tumor sites: lesser bioluminescence
  brain weight: markedly suppressed
  tumor diameter: markedly suppressed
  tumor volume: markedly suppressed

## O=C(Nc1ccccc1)c1cc([N+](=O)[O-])ccc1Cl [GW9662, reference compound]
Primary microglia; antagonist of PPARγ, blocked the ability of rosiglitazone
  PPAR-γ expression in presence of rosiglitazone: downregulated

## Cc1ncsc1CCCl [clomethiazole, reference compound]
CYP2E1 [5]; chlorzoxazone 62.5 µM, read-out: IC50 of inhibition on CYP2E1
  IC50: 39.3 µM
[18]
  central inhibitory effect: significant central inhibitory effect
